Measurements published in paper PMC8041284, “Tunable Methacrylamides for Covalent Ligand Directed Release Chemistry” (Journal of the American Chemical Society, 2021).

Biological target: BTK (Homo sapiens, UniProt Q06187)
Assay: biochemical
Settings: read-out: BTK inhibition (%)

BTK, sequence (Q06187 402-655 limits assumed): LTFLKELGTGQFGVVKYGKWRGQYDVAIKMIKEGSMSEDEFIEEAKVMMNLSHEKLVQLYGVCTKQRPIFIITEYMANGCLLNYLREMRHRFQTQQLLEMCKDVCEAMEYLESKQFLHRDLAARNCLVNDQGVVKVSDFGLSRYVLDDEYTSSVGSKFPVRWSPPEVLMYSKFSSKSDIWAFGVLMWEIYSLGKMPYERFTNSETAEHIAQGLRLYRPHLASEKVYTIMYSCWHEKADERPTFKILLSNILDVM

Row | Structure (SMILES) | inhibition at 10 µM
1 | C=CCCCCCCCCC(=O)O[C@H]1CC[C@H]2[C@@H]3CCC4=CC(=O)C=C[C@]4(C)[C@H]3CC[C@]12C [PCM-0215894] | 10.9%
2 | CCN1C[C@]2(COC)CC[C@H](OC)[C@]34C1[C@H](C[C@H]23)[C@@]1(O)C[C@H](OC)[C@H]2C[C@@H]4[C@@H]1[C@H]2O [PCM-0216478] | 10.8%
3 | CC(=O)O[C@H]1CC[C@H]2[C@@H]3CCC4=CC(=O)CCC4=C3C=C[C@]12C [PCM-0215062] | 2.3%

Same assay, conditions: read-out: BTK inhibition (%), 0.75 uM BTK, […] probe 3l, 15 min preincubation

Row | Structure (SMILES) | inhibition at 10 µM
4 | C[C@@H]1CC[C@@]2(OC1)O[C@H]1C[C@H]3[C@@H]4CC=C5C[C@@H](O[C@@H]6O[C@H](CO)[C@@H](O)[C@H](O)[C@H]6O)CC[C@]5(C)[C@H]4CC[C@]3(C)[C@H]1[C@@H]2C [PCM-0216366] | -20.1%
5 | COc1ccc(C(=O)CC(=O)c2ccc(C(C)(C)C)cc2)cc1 [PCM-0090378] | -3.9%
6 | O=C(O)/C=C/C(=O)O [PCM-0064603] | -7.7%
7 | Fc1ccc(-c2c3cccc(C(F)(F)F)c3nn2Cc2ccc(F)cc2Cl)cc1 [PCM-0215789] | 30.1%
8 | C=C[C@H]1CN2CC[C@H]1C[C@@H]2[C@@H](O)c1ccnc2ccccc12 [PCM-0214935] | -17.1%
9 | O=C(O)/C=C(/CC(=O)O)C(=O)O [PCM-0215145] | -0.8%
10 | COCCc1ccc(OCC(O)CNC(C)C)cc1 (centres unmarked) [PCM-0065348] | 17%
11 | C[C@@H](c1ccc2nccn2c1)n1nnc2ncc(-c3cnn(C)c3)nc21 [PCM-0215934] | -9.3%
12 | Cc1ccccc1N1CCN(CCc2nnc3n2CCCC3)CC1 [PCM-0216139] | 3.9%
13 | CCS(=O)(=O)Nc1ccc(Oc2ccc(F)cc2F)c(-c2cn(C)c(=O)c3[nH]ccc23)c1 [PCM-0214596] | 16.2%
14 | C=C[C@H]1CN2CC[C@]3(C(=O)Nc4ccccc43)[C@@H]2C[C@@H]1/C(=C\OC)C(=O)OC [PCM-0216538] | 6.2%
15 | Fc1ccc(CNc2ncnc3ccc(F)cc23)cc1 [PCM-0215554] | -17%
16 | N[C@@H]1CONC1=O [PCM-0064462] | -11.9%
17 | O=C(NCCS(=O)(=O)c1ccc(C(F)(F)F)cn1)c1ccc(Cl)cc1 [PCM-0007384] | 16.6%
18 | NC(=O)c1cnccn1 [PCM-0065550] | 5.4%
19 | CCCCCOc1ccccc1/C(=C\SC)n1ccnc1 [PCM-0215110] | -22.6%
20 | O=c1c2cc(O)c(O)cc2oc2cc(O)c([C@@H]3O[C@H](CO)[C@@H](O)[C@H](O)[C@H]3O)c(O)c12 [PCM-0215004] | -14.8%
21 | Cn1cnc([N+](=O)[O-])c1Sc1ncnc2nc[nH]c12 [PCM-0064491] | -4.8%
22 | OCCOCCN1CCN(Cc2cccc(Oc3ccccc3)c2)CC1 [PCM-0215707] | 13.1%
23 | COc1ccc2c(c1)c(CC(=O)OCC(=O)O)c(C)n2C(=O)c1ccc(Cl)cc1 [PCM-0085879] | -19.3%
24 | O=C(O[C@@H]1O[C@@H]2COC(=O)c3cc(O)c(O)c(O)c3-c3c(cc(O)c(O)c3O)C(=O)O[C@H]([C@H]1O)[C@@H]2O)c1cc(O)c(O)c(O)c1 [PCM-0216383] | 37.1%
25 | O=C(O)/C=C/c1ccc(O)c(O)c1 [PCM-0064590] | -21.8%
26 | CSCC[C@H](N)C(=O)O [PCM-0216223] | -0.9%
27 | Cc1ccccc1C(=O)Nc1ccc(C(=O)N2CCCC(O)c3cc(Cl)ccc32)c(C)c1 (centres unmarked) [PCM-0095415] | 4.7%
28 | Cc1cc2c(F)c(Oc3ncnn4cc(OC[C@@H](C)O)c(C)c34)ccc2[nH]1 [PCM-0095049] | 9%

Row | Structure (SMILES) | inhibition at 10 µM
29 | Cn1cnc2c(F)c(Nc3ccc(Br)cc3Cl)c(C(=O)NOCCO)cc21 [PCM-0094893] | -6.9%
30 | CC(C)Cc1ccc([C@@H](C)C(=O)NS(C)(=O)=O)cc1 [PCM-0215882] | -24.8%
31 | COc1cc2oc(=O)ccc2c(OC)c1C[C@@H](O)C(C)(C)O [PCM-0216455] | -13.1%
32 | COc1cc(/C=C/c2ccc(O)c(O)c2)cc(OC)c1 [PCM-0214943] | 36.6%
33 | OC(c1ccccc1)(c1ccccc1)C12CC[N+](CCOCc3ccccc3)(CC1)CC2 [PCM-0214921] | -34.2%
34 | CNC(=O)[C@H](Cc1c[nH]c2ccccc12)NC(=O)[C@@H](CC(=O)NO)CC(C)C [PCM-0095723] | 19.3%
35 | C=C(c1ccc(C(=O)O)cc1)c1cc2c(cc1C)C(C)(C)CCC2(C)C [PCM-0095260] | 14%
36 | CCCCc1oc2ccc(NS(C)(=O)=O)cc2c1C(=O)c1ccc(OCCCN(CCCC)CCCC)cc1 [PCM-0095292] | 62.3%
37 | CO[C@H]1O[C@H](COS(=O)(=O)O)[C@@H](O[C@@H]2O[C@@H](C(=O)O)[C@@H](O[C@H]3O[C@H](COS(=O)(=O)O)[C@@H](O[C@@H]4O[C@H](C(=O)O)[C@@H](O[C@H]5O[C@H](COS(=O)(=O)O)[C@@H](O)[C@H](O)[C@H]5NS(=O)(=O)O)[C@H](O)[C@H]4O)[C@H](OS(=O)(=O)O)[C@H]3NS(=O)(=O)O)[C@H](O)[C@H]2OS(=O)(=O)O)[C@H](O)[C@H]1NS(=O)(=O)O [PCM-0215897] | -13.6%
38 | O=C(c1cn(Cc2cncn2Cc2ccc(Br)cc2)cc1-c1cccc2ccccc12)N1CCOCC1 [PCM-0215301] | -4.6%
39 | CCOC(=O)C1=C(COCCN)NC(C)=C(C(=O)OC)[C@@H]1c1ccccc1Cl [PCM-0214889] | -11.7%
40 | COC(=O)c1cc(OC)c2c(c1-c1c(C(=O)OC)cc(OC)c3c1OCO3)OCO2 [PCM-0216065] | 2.8%
41 | O=C(/C=C/C=C/c1ccc2c(c1)OCO2)N1CCCCC1 [PCM-0006645] | -14%
42 | COc1ccc(C(=O)Nc2sc3c(c2C(N)=O)CCCC3)cc1OC [PCM-0095611] | 6.9%
43 | NC[C@H](O)c1ccc(O)c(O)c1 [PCM-0214713] | -5.4%
44 | CC(C)(C)NCC(O)c1cc(O)cc(O)c1 (centres unmarked) [PCM-0064743] | -26.4%
45 | O=C(CCN1CCN(C(=O)OCc2cc(Cl)cc(Cl)c2)CC1)c1ccc2[nH]c(=O)oc2c1 [PCM-0215647] | -4.6%
46 | CC[C@H](Nc1ncnc2nc[nH]c12)c1oc2ccccc2c(=O)c1-c1cccc(F)c1 [PCM-0216040] | 8.5%
47 | O=C(NN=Cc1ccc(O)c(O)c1)c1cc2ccccc2cc1O [PCM-0215235] | 32.4%
48 | CC(/C=C1\SC(=S)N(CC(=O)O)C1=O)=C\c1ccccc1 [PCM-0095314] | -47.7%
49 | O=c1[nH]c(=O)n([C@H]2C[C@H](O)[C@@H](CO)O2)cc1/C=C/Br [PCM-0215082] | 7.7%
50 | Cc1cc(Cl)ccc1OCCCC(=O)NO [PCM-0064710] | 7%
51 | CNc1cccc(CCOc2ccc3c(c2)CN(CC(F)(F)F)C(=O)[C@H](CC(=O)O)C3)n1 [PCM-0215443] | 8.5%
52 | O=c1oc2cc(O)ccc2c2ccc(O)cc12 [PCM-0216079] | 32.4%
53 | CC(=O)OCC1=C(C(=O)O)N2C(=O)[C@@H](NC(=O)Cc3cccs3)[C@H]2SC1 [PCM-0214820] | -12.5%

Row | Structure (SMILES) | inhibition at 10 µM
54 | C=CC(=O)Nc1cccc(Oc2nc(Nc3ccc(N4CCN(C)CC4)cc3)ncc2Cl)c1 [PCM-0095023] | 91.7%
55 | OCc1c[nH]c2ccccc12 [PCM-0091140] | -14%
56 | CC(C)C(=O)Oc1ccc(CO)cc1[C@H](CCN(C(C)C)C(C)C)c1ccccc1 [PCM-0095281] | -0.8%
57 | Cn1cc(C(=O)[C@@H]2CCc3nc[nH]c3C2)c2ccccc21 [PCM-0214919] | -3.1%
58 | Nc1nc(NC2CC2)cc(-c2cccc(Cl)c2Cl)n1 [PCM-0215420] | 28.6%
59 | O=C(Nc1cccc(C(F)(F)F)c1)Nc1cc(S(=O)(=O)NC2CC2)ccc1-c1ccsc1 [PCM-0095800] | 27%
60 | Cc1c(C(=O)Nc2ccc(Oc3ccnc4[nH]cc(-c5ccccc5)c34)c(F)c2)c(=O)n(-c2ccc(F)cc2)n1C [PCM-0215493] | 95.9%
61 | O=C1CN2Cc3c(ccc(Cl)c3Cl)N=C2N1 [PCM-0090482] | -15.2%
62 | CC1(C)S[C@@H]2[C@H](NC(=O)[C@H](C(=O)O)c3ccsc3)C(=O)N2[C@H]1C(=O)O [PCM-0214724] | -1.6%
63 | Cn1c(=O)c(F)c(Nc2ccc(I)cc2F)c2c(=O)n(C[C@@H](O)CO)cnc21 [PCM-0095463] | 7.6%
64 | C#C[C@]1(O)CC[C@H]2[C@@H]3CCc4cc(O)ccc4[C@H]3CC[C@@]21C [PCM-0086269] | 26.5%
65 | O=Cc1ccc(O)c(O)c1 [PCM-0215162] | 5.4%
66 | Nc1nc(-c2nn(Cc3ccccc3F)c3ncccc23)ncc1C1CC1 [PCM-0215570] | -5.4%
67 | CNC(=O)c1c(C)oc2cc(Oc3ncnc4cc(OC)c(OC)cc34)ccc12 [PCM-0216648] | 1.4%
68 | Nc1ccc(S(N)(=O)=O)cc1 [PCM-0086364] | -9.3%
69 | CCN(CC)CCOC(=O)c1ccc(N)cc1Cl [PCM-0214797] | -1.6%
70 | CNC(=O)c1ccc(C)c(-n2c(C)cc(OCc3ccc(F)cc3F)c(Br)c2=O)c1 [PCM-0095443] | -14.5%
71 | CCCCCCOC(=O)NC(=N)c1ccc(NCc2nc3cc(C(=O)N(CCC(=O)OCC)c4ccccn4)ccc3n2C)cc1 [PCM-0214664] | -14%
72 | O=C1NC(=O)C(c2cnc3ccccn23)=C1c1cn2c3c(cc(F)cc13)CN(C(=O)N1CCCCC1)CC2 [PCM-0215438] | 80%
73 | CCCNC[C@]1(O)[C@H](C)O[C@@H](O[C@H]2[C@H](C)[C@@H](O[C@@H]3O[C@H](C)C[C@H](N(C)C)[C@H]3O)[C@](C)(O)C[C@@H](C)CN[C@H](C)[C@@H](O)[C@](C)(O)[C@@H](CC)OC(=O)[C@@H]2C)C[C@@]1(C)OC [PCM-0214927] | -26.5%
74 | O=C(Cc1cccc(OC(F)(F)F)c1)Nc1ccc(CCCCc2nnc(NC(=O)Cc3ccccn3)s2)nn1 [PCM-0215461] | 0%
75 | C[C@H](CCC(=O)O)[C@H]1CC[C@H]2[C@@H]3CC[C@@H]4C[C@H](O)CC[C@]4(C)[C@H]3C[C@H](O)[C@]12C [PCM-0214839] | 11.7%
76 | O=C(O)c1cc(=O)[nH]c(=O)[nH]1 [PCM-0090751] | -11.7%
77 | O=C(NCCO)c1cccc(-c2cc(Nc3ccc(OC(F)(F)F)cc3)ncn2)c1 [PCM-0213352] | -24.1%
